According to EP3381905A1, “NOVEL ANTIVIRAL COMPOUNDS” (priority 2017, dated 2018):

Experiments:
U2OS cells = assay: cytotoxicity, CellTiter-Glo Luminescent Cell Viability Assay; conditions: for cytotoxicity profile (normalized cell viability): 250 nM to 50 µM, 36 h (Figure 7)
[1] = tested on: GFP expressing HAd-C5 vector; assay: fluorescent plaque forming assay (adenoviral propagation / virus spread); format: cell-based, adenovirus
[2] = tested on: MARV VP40 with the late domain motif of Ebola virus (PTAPPEY) VP40 (VP40ELD); format: cell-based, Marburg virus
HAd-C5 = assay: adenovirus genome nuclear import (nuclear protein VII staining, confocal microscopy); format: cell-based; conditions: U2OS cells, 5 µM, 2500 pp/cell, 2 hours post-infection, vs DMSO
HAd-C5-wt virus = assay: adenoviral early gene expression by real-time PCR; format: cell-based, adenovirus; conditions: U2OS cells, 5 µM, 4 hours post-infection, vs vehicle

## Clc1ccc(-c2ccc(Cn3ccnc3)c(-c3ccc(Cl)cc3Cl)c2)c(Cl)c1 [CT2-10, 1-((2,2",4,4"-Tetrachloro-[1,1':3',1"-terphenyl]-4'-yl)methyl)-1H-imidazole]
U2OS cells
  cytotoxicity profile (normalized cell viability): cytotoxicity profiles similar to Sulconazole

## Clc1ccc(-c2cc(-n3ccnc3)c(-c3ccc(Cl)cc3Cl)o2)c(Cl)c1 [CT2-13, 1-(2,5-bis(2,4-Dichlorophenyl)furan-3-yl)-1H-imidazole]
U2OS cells
  cytotoxicity profile (normalized cell viability): cytotoxicity profiles similar to Sulconazole

## Nc1ccn(C[C@@H](CO)OCP(=O)(O)O)c(=O)n1 [Cidofovir]
[1]; 10 µM and 20 µM (Example 8, Figure 6)
  inhibition of adenoviral propagation (plaque size): did not show significant inhibition

## Clc1ccc(CO/N=C(\Cn2ccnc2)c2ccc(Cl)cc2Cl)c(Cl)c1 [Oxiconazole]
U2OS cells
  cytotoxicity profile (normalized cell viability): cytotoxicity profiles similar to Sulconazole

## Clc1ccc(CSC(Cn2ccnc2)c2ccc(Cl)cc2Cl)cc1 (stereo not shown) [Sulconazole]
[2]
  VP40 VLP release: inhibit
HAd-C5
  nuclear accumulation of viral genomes (protein VII): significantly reduces the nuclear accumulation of viral genomes
[1]; 5 µM, HEK293 cells, 0.1 pp/cell HAd-C5-GFP, six days after infection, vs DMSO (Example 3, Figure 1, P<0.0001)
  plaque size (adenovirus virus propagation): significant reduced plaque size
U2OS cells; 5 µM, 36 h
  cytotoxicity: not cytotoxic
HAd-C5-wt virus
  early viral genes expression (E1A, E1B, E4 orf6/7): significant reduction of early viral genes expression
MARV
  reduction of MARV titers (TCID50): 1-2 log
